In patent US20080181874A1, “CELL COMPOSITION AND METHOD FOR TREATING CANCER” (priority 2007, published 2008):

Assays:
[1] = test system: viable tumor cells from the right chest wall lesion (mammary carcinoma cells); assay: In vitro drug response of fresh tumor cells (DISC, MTT and redox assays); type: cell-based, human; set-up: key to ASSAY RESULT: Sensitive: A cancer cell is said to be sensitive to a drug when the drug inhibits the cell growth or proliferation of the cell to a greater degree than is expected for an appropriate control; Resistant: A cancer cell is said to be sensitive to a drug when the drug inhibits the cell growth or proliferation of the cell to a lesser degree than is expected for an appropriate control; details: for ASSAY RESULT: compared with a database of assays with similar technical characteristics; for ASSAY PREDICTED RESPONSE PROBABILITY: predicted from the assay result; for activity in vitro (in words): summary of the table
Protocol: An unfixed portion of the tumor was further analyzed for response to several drugs. A specimen consisted of 1 piece of yellow, white, and red tissue, obtained from the right chest wall lesion. The piece was soft and sticky in texture, measured 0.8×1.4 cm, and weighed 0.47 gm. The specimen was minced to individual pieces smaller than one mm with surgical scissors and digested for 1.3 hours with collagenase-DNAse. Viable tumor cells were enriched by Ficoll-diatriozate centrifugation. Cytospin slides were prepared, air-dried, and stained with Fast Green/Hamatoxyline-eosin. On this cytology preparation obtained from mechanically-dissociated, enzyme-digested tissue, there was a collection of somewhat pleomorphic tumor cells, consistent with mammary carcinoma cells. Tumor cells were present as loose cell clusters (60% of total tumor cells) and, less commonly, as discohesive single cells (40% of total tumor cells). The tumor cells measured 22-25 microns in diameter and had N/N+C ratios of 0.6-0.8. […] Nucleoli were variably prominent. There were no cells with large clear globular areas or secretory material within the cytoplasm. There was slight cytoplasmic and nuclear molding. Approximately 40% of the enriched tumor cell fraction consisted of normal-appearing connective tissue cells and inflammatory cells.
Cells were plated for testing in 3 different assay endpoints. In the DISC assay, the entire contents of the cell culture were cytocentrifuged onto permanent microscope slides and differentially stained to allow discrimination of normal and neoplastic cells and living and dead cells. […] The MTT assay measures mitochondrial metabolism in the entire cell culture. The redox assay measures total metabolic activity in the entire cell culture, using the Alamar Blue reagent to index the oxygen reduction potential of the culture medium. Because of the very low yield of viable tumor cells, only a small drug panel could be tested. Additionally, some drugs could be tested only in a single assay system.
At the conclusion of the culture period, there was 10% spontaneous attrition in viable tumor cell numbers. Formazan signal in the MTT assay was moderate, reflective of moderate cell metabolism, and allowing for an MTT assay of good quality. Percentage of tumor cells as a percentage of total viable cells at the conclusion of the culture was approximately 85. DISC and MTT assays were in reasonably good agreement. The overall technical quality of the assays was good, marred only by the low yield of tumor cells, which severely limited the scope of testing.
Results were compared with a database of assays which had similar technical characteristics, as the technical characteristics of these assays influence the in vitro results, along with the intrinsic drug resistance of the tumor cells. By controlling for technical characteristics such as spontaneous cell loss, metabolic signal at the conclusion of the culture, and tumor cell clustering, biological correlations are improved.

[2] = test system: patients with very advanced stage IV breast cancer; details: components of the vaccine regimen, one patient each
Protocol: Breast cancer patients treated with a composition comprising AKCV-1 cells (administered in conjunction with GM-CSF) were evaluated. […] A small cohort of patients with very advanced stage 1V breast cancer were treated with a vaccine consisting of 10-20×10^6 viable, irradiated tumor cells (AKCV-1) admixed with an equal number of cryopreserved peripheral blood lymphocytes obtained by leukapheresis. Patients were pretreated with low-dose cyclophosphamide 300 mg/m^2 48-72 hrs prior to vaccine and received subcutaneous injections of GM-CSF just prior, and for 8 days after, vaccine inoculation.

CC(=O)O[C@H]1C(=O)[C@@]2(C)[C@H]([C@H](OC(=O)c3ccccc3)[C@]3(O)C[C@H](OC(=O)[C@H](O)[C@@H](NC(=O)c4ccccc4)c4ccccc4)C(C)=C1C3(C)C)[C@]1(OC(C)=O)CO[C@@H]1C[C@@H]2O [Taxol (Paclitaxel), Paclitaxel]
ASSAY RESULT [1]: Sensitive
ASSAY PREDICTED RESPONSE PROBABILITY [1]: 62
best drug in vitro ([1]; ranking among the drugs tested): best drug in vitro
activity in vitro (in words) [1]: above-average activity

N.N.[Cl][Pt][Cl] [Cisplatin]
ASSAY RESULT [1]: Intermediate
ASSAY PREDICTED RESPONSE PROBABILITY [1]: 30

O=c1[nH]cc(F)c(=O)[nH]1 [Fluorouracil]
ASSAY RESULT [1]: Intermediate
ASSAY PREDICTED RESPONSE PROBABILITY [1]: 20

GM-CSF: granulocyte macrophage colony stimulating factor, given as subcutaneous injections
Toxicity [2]: increasing ascites and abdominal discomfort

O=P1(N(CCCl)CCCl)NCCCO1 (centres unmarked) [Cyclophosphamide]
ASSAY RESULT [1]: Sensitive
ASSAY PREDICTED RESPONSE PROBABILITY [1]: 55
activity in vitro (in words) [1]: above-average activity
Toxicity [2]: exacerbation of pericardial effusion and atrial fibrillation, which spontaneously resolved

COc1cccc2c1C(=O)c1c(O)c3c(c(O)c1C2=O)C[C@@](O)(C(=O)CO)C[C@@H]3O[C@H]1C[C@H](N)[C@H](O)[C@H](C)O1 [Doxorubicin]
ASSAY RESULT [1]: Intermediate
ASSAY PREDICTED RESPONSE PROBABILITY [1]: 30

CCC1=C[C@@H]2CN(C1)Cc1c([nH]c3ccccc13)[C@@](C(=O)OC)(c1cc3c(cc1OC)N(C)[C@H]1[C@@](O)(C(=O)OC)[C@H](OC(C)=O)[C@]4(CC)C=CCN5CC[C@]31[C@@H]54)C2 [Vinorelbine]
ASSAY RESULT [1]: Intermediate
ASSAY PREDICTED RESPONSE PROBABILITY [1]: 30

N.N.O=C([O-])C1(C(=O)[O-])CCC1.[Pt+2] [(4HC) Carboplatin, Carboplatin]
ASSAY RESULT [1]: Resistant
ASSAY PREDICTED RESPONSE PROBABILITY [1]: 5
activity in vitro (in words) [1]: poor activity

COc1cc([C@@H]2c3cc4c(cc3[C@@H](O[C@@H]3O[C@@H]5CO[C@@H](C)O[C@H]5[C@H](O)[C@H]3O)[C@H]3COC(=O)[C@H]23)OCO4)cc(OC)c1O [Etoposide]
ASSAY RESULT [1]: Sensitive
ASSAY PREDICTED RESPONSE PROBABILITY [1]: 55
activity in vitro (in words) [1]: above-average activity
